Assay results reported in PMC11045757, “Group 3 medulloblastoma transcriptional networks collapse under domain specific EP300/CBP inhibition” (Nature Communications, 2024).

Key:
[1] = target: T1, BRDT(1) (Homo sapiens, UniProt Q58F21); experiment: BromoScan profiling (DiscoverX); type: binding; details: read-out: Percent Control BRDT(1)
T1 construct: BRDT(1); purchased Eurofins DiscoverX (BROMOscan)

[2] = target: T2, PCAF (Homo sapiens, UniProt Q92831); experiment: BromoScan profiling (DiscoverX); type: binding; details: read-out: Percent Control PCAF
T2 construct: purchased Eurofins DiscoverX (BROMOscan)

[3] = target: T3, TRIM24(PHD,Bromo.) (Homo sapiens, UniProt O15164); experiment: BromoScan profiling (DiscoverX); type: binding; details: read-out: Percent Control TRIM24(PHD,Bromo.)
T3 construct: purchased Eurofins DiscoverX (BROMOscan)

[4] = target: T4, SMARCA4 (Homo sapiens, UniProt P51532); experiment: BromoScan profiling (DiscoverX); type: binding; details: read-out: Percent Control SMARCA4
T4 construct: purchased Eurofins DiscoverX (BROMOscan)

[5] = target: T5, ATAD2A (Homo sapiens, UniProt Q6PL18); experiment: BromoScan profiling (DiscoverX); type: binding; details: read-out: Percent Control ATAD2A
T5 construct: purchased Eurofins DiscoverX (BROMOscan)

[6] = target: T6, WDR9(2) (Homo sapiens, UniProt Q9NSI6); experiment: BromoScan profiling (DiscoverX); type: binding; details: read-out: Percent Control WDR9(2)
T6 construct: WDR9(2); purchased Eurofins DiscoverX (BROMOscan)

[7] = Plasma pharmacokinetics after i.p. dosing; type: in vivo, female CD-1 nude mice; details: 16 and 24 hrs, below lower limit of quantitation
Description: All animal studies were approved by the St. Jude Children’s Research Hospital Animal Care and Use Committee and performed in accordance with best practices outlined by the NIH Office of Laboratory Animal Welfare. […] Three survival blood samples were obtained from each mouse via retro-orbital plexus using 70 μL glass microhematocrit capillary tubes (Fisher), and a fourth final sample by cardiac puncture immediately following the third survival sample, all using K-EDTA as anticoagulant. Samples were obtained at various times up to 24 h post-dose, immediately processed to plasma, and stored at −80 °C until analysis. […]
Brain samples were homogenized using a FastPrep-24 system (MP Biomedicals, Santa Ana, CA), and stored at -80 °C until analysis by qualified liquid chromatography–tandem mass spectrometry (LC-MS/MS) assay. […] Plasma and brain homogenate samples were precipitated, and extracted supernatant was analyzed on an AB Sciex ExionLC high performance liquid chromatography system via an AB Sciex ExionLC autosampler. For quantitation, a linear model (1/X^2 weighting) fit the plasma and brian homogenate calibrators across the 1 to 500 ng/mL range, with a correlation coefficient (R) of ≥0.9967. The lower limit of quantitation (LLOQ), defined as a peak area signal-to-noise ratio of 5 or greater verses a matrix blank with internal standard, was 1 ng/mL in plasma and 6 ng/mL in brain. […]

[8] = target: T7, TAF1(2) (Homo sapiens, UniProt P21675); experiment: BromoScan profiling (DiscoverX); type: binding; details: read-out: Percent Control TAF1(2)
T7 construct: TAF1(2); purchased Eurofins DiscoverX (BROMOscan)

[9] = system: c-MYC in HDMB03 (HDMBO3) cells; experiment: Western blotting for c-MYC after 6 h treatment; type: cell-based; details: CCS1477 39 nM, A485 400 nM, JQ1 100 nM
Excerpt: Line width indicates strength of known protein-protein interactions. Red indicates proteins involved in control of mRNA transcription/cell cycle, blue indicates proteins involved in RNA metabolism.
Western blotting protocols were as previously described[16],[69]. Briefly, cells growing in culture were lysed for whole-cell lysates using RIPA buffer, or for affinity pulldown using IP-lysis buffer (Pierce Biotechnology) per the manufacturer’s protocol. […] Equal amounts of protein were resolved by Western blotting using 4% to 12% Bis–Tris NuPAGE gels (Thermo Fisher Scientific) prior to transfer and immunoblotting using primary antibodies to EP300 (1:1000, Abcam ab10485), BRD4 (1:1000, Epicypher 13-2003), c-MYC (1:1000, Cell Signaling Technology #5605) or β-Actin (1:1000, Cell Signaling Technology #4967). Secondary antibodies were horseradish peroxidase–conjugated anti-rabbit or anti-mouse (1:5000, Santa Cruz Biotechnology, sc-2357, sc-358914), incubated prior to exposure to enhanced chemiluminescence reagents (GE Amersham). Densitometry was performed using Image Lab v6.1 (BioRad).

[10] = target: T8, BAZ2A (Homo sapiens, UniProt Q9UIF9); experiment: BromoScan profiling (DiscoverX); type: binding; details: read-out: Percent Control BAZ2A
T8 construct: purchased Eurofins DiscoverX (BROMOscan)

[11] = target: T9, BRDT(2) (Homo sapiens, UniProt Q58F21); experiment: BromoScan profiling (DiscoverX); type: binding; details: read-out: Percent Control BRDT(2)
T9 construct: BRDT(2); purchased Eurofins DiscoverX (BROMOscan)

[12] = target: T10, FALZ (Homo sapiens, UniProt Q12830); experiment: BromoScan profiling (DiscoverX); type: binding; details: read-out: Percent Control FALZ
T10 construct: purchased Eurofins DiscoverX (BROMOscan)

[13] = target: T11, BRD7 (Homo sapiens, UniProt Q9NPI1); experiment: BromoScan profiling (DiscoverX); type: binding; details: read-out: Percent Control BRD7
T11 construct: purchased Eurofins DiscoverX (BROMOscan)

[14] = target: T12, BRD3(2) (Homo sapiens, UniProt Q15059); experiment: BromoScan profiling (DiscoverX); type: binding; details: read-out: Percent Control BRD3(2)
T12 construct: BRD3(2); purchased Eurofins DiscoverX (BROMOscan)

[15] = target: T13, BRPF3 (Homo sapiens, UniProt Q9ULD4); experiment: BromoScan profiling (DiscoverX); type: binding; details: read-out: Percent Control BRPF3
T13 construct: purchased Eurofins DiscoverX (BROMOscan)

[16] = target: T14, PBRM1(2) (Homo sapiens, UniProt Q86U86); experiment: BromoScan profiling (DiscoverX); type: binding; details: read-out: Percent Control PBRM1(2)
T14 construct: PBRM1(2); purchased Eurofins DiscoverX (BROMOscan)

[17] = target: T15, BRD2(2) (Homo sapiens, UniProt P25440); experiment: BromoScan profiling (DiscoverX); type: binding; details: read-out: Percent Control BRD2(2)
T15 construct: BRD2(2); purchased Eurofins DiscoverX (BROMOscan)

[18] = target: T16, BRPF1 (Homo sapiens, UniProt P55201); experiment: BromoScan profiling (DiscoverX); type: binding; details: read-out: Percent Control BRPF1
T16 construct: purchased Eurofins DiscoverX (BROMOscan)

[19] = target: T17, BRD2(1) (Homo sapiens, UniProt P25440); experiment: BromoScan profiling (DiscoverX); type: binding; details: read-out: Percent Control BRD2(1)
T17 construct: BRD2(1); purchased Eurofins DiscoverX (BROMOscan)

[20] = target: T18, BRD4(2) (Homo sapiens, UniProt O60885); experiment: BromoScan profiling (DiscoverX); type: binding; details: read-out: Percent Control BRD4(2)
T18 construct: BRD4(2); purchased Eurofins DiscoverX (BROMOscan)

T11 sequence (Q9NPI1 whole entry): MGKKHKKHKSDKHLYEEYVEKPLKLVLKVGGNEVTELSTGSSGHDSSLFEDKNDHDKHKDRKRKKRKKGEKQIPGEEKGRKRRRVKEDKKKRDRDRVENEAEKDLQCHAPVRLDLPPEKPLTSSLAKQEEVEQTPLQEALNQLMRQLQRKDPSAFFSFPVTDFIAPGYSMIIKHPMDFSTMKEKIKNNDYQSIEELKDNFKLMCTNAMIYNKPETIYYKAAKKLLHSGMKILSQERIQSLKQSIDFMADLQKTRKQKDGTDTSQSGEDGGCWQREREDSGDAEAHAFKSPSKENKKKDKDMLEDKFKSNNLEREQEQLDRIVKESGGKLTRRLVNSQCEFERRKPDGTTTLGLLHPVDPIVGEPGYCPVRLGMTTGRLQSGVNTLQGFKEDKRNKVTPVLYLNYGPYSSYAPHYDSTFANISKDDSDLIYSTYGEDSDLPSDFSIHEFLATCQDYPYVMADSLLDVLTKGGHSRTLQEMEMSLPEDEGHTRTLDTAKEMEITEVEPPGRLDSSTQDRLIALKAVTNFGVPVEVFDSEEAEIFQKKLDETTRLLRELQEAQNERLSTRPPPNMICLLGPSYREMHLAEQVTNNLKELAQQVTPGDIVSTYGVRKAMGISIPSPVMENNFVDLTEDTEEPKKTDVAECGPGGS
T17 sequence (P25440 71-194 limits assumed): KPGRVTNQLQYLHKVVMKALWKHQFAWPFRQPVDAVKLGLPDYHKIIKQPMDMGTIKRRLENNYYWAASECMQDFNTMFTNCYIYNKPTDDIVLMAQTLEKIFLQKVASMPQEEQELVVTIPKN
T12 sequence (Q15059 306-416 limits assumed): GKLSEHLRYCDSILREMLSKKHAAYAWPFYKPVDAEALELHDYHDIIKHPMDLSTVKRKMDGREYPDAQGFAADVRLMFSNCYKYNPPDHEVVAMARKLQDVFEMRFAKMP
T7 sequence (P21675 1519-1656 limits assumed): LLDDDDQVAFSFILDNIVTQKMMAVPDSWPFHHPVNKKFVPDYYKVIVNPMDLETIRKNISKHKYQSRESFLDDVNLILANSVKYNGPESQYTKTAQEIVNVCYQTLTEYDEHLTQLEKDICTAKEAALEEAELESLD
T13 sequence (Q9ULD4 whole entry): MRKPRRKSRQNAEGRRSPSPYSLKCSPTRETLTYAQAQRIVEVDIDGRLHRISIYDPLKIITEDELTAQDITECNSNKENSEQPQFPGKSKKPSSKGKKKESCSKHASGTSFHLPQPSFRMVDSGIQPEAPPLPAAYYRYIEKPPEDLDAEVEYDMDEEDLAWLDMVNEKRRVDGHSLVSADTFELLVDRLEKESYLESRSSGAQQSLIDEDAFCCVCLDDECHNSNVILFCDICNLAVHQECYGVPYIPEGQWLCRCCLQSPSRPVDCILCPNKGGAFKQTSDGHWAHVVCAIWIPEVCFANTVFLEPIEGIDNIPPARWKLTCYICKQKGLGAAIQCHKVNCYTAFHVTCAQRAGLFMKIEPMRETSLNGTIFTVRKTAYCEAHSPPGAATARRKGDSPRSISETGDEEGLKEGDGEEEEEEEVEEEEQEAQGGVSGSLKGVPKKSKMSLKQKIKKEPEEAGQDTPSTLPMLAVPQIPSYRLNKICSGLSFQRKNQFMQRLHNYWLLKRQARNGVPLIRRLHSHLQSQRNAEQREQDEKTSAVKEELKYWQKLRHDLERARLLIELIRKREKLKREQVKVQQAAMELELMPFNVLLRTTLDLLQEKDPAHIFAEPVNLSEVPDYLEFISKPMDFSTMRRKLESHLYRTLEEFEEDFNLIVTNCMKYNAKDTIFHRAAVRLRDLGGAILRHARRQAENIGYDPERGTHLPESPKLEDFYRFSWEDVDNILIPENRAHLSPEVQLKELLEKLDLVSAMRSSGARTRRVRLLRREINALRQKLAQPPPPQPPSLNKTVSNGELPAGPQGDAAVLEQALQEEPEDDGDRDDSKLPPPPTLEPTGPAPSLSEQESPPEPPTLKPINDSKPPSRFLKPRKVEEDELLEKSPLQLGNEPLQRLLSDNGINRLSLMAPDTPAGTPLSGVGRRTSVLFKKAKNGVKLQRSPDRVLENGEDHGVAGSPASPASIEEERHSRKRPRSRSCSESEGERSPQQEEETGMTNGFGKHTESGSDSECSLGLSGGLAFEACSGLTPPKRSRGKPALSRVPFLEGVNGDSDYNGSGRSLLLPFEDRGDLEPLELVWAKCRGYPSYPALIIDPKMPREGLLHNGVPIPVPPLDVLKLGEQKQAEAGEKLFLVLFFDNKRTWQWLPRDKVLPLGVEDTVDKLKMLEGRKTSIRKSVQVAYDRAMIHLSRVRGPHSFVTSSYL
T3 sequence (O15164 824-1006 limits assumed): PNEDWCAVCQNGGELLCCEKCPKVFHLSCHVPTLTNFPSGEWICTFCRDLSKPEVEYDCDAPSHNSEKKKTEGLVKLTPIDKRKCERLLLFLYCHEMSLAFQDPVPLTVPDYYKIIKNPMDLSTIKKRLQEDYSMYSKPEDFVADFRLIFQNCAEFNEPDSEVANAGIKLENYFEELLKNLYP
T16 sequence (P55201 whole entry): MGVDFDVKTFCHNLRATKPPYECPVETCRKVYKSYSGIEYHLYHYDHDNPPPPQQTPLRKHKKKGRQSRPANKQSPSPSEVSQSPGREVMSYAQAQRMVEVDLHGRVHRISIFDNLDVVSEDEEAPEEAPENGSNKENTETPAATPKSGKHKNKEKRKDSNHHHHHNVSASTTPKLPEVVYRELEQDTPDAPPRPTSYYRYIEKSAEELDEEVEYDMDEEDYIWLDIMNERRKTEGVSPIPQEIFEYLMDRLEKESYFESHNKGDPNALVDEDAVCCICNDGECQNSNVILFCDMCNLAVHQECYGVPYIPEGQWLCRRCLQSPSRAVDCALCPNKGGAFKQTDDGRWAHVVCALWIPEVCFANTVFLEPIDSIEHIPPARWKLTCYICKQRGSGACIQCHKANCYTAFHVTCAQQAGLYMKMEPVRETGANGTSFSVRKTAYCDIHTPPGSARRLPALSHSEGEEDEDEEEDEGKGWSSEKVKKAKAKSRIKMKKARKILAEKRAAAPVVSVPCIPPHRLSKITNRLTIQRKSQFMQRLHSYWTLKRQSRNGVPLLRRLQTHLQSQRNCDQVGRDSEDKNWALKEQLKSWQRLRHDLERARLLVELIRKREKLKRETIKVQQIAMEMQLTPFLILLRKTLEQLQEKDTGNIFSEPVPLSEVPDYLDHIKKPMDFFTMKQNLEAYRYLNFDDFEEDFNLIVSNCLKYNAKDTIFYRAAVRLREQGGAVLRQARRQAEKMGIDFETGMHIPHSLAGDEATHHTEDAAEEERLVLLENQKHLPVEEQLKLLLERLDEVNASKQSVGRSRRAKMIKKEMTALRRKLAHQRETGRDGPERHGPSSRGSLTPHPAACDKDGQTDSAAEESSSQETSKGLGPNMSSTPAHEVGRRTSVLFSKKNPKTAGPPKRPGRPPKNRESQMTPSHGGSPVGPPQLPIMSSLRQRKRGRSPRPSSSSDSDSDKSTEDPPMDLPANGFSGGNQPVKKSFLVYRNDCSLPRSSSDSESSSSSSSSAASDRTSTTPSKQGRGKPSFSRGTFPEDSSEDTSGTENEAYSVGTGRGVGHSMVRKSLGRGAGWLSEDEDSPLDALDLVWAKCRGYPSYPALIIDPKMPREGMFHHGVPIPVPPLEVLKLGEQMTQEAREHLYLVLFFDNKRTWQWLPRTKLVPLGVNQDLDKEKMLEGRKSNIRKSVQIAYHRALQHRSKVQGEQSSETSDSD
T5 sequence (Q6PL18 whole entry): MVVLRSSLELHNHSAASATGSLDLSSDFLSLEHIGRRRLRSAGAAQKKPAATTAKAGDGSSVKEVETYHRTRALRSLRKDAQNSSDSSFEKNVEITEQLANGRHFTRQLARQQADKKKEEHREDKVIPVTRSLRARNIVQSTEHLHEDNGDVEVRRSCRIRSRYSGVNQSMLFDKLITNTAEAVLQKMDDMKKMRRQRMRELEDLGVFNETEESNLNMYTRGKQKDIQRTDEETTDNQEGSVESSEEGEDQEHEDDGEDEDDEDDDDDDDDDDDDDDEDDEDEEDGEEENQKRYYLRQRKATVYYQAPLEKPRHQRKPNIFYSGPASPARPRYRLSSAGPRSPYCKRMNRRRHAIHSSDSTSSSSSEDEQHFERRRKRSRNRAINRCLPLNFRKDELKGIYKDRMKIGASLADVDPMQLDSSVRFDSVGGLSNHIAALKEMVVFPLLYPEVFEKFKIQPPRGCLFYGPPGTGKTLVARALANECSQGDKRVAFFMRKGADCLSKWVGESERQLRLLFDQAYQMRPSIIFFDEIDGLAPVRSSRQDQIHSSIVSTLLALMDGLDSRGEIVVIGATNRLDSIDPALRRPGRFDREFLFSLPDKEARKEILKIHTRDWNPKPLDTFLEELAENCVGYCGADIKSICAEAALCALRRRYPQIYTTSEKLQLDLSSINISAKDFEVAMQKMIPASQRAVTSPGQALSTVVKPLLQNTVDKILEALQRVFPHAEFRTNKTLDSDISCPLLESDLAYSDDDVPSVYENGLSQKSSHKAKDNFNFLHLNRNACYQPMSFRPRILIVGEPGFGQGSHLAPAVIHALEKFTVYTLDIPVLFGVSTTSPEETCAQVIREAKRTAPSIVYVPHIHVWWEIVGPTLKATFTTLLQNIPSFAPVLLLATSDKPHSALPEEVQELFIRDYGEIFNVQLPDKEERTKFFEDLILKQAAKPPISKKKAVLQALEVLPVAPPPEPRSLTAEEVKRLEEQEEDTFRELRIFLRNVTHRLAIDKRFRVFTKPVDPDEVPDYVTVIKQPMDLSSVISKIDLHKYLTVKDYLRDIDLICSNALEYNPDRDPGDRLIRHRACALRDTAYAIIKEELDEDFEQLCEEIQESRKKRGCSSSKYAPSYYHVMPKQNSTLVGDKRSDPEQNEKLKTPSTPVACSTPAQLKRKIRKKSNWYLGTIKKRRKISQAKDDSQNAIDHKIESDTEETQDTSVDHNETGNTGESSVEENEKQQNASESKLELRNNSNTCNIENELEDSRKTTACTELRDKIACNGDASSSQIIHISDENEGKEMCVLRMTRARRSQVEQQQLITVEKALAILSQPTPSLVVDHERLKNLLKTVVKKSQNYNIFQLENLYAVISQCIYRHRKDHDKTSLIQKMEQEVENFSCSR

remaining binding at 1 µM [1]: 14% | remaining binding at 1 µM [2]: 88% | remaining binding at 1 µM [3]: 54% | remaining binding at 1 µM [4]: 61% | remaining binding at 1 µM [5]: 100% | remaining binding at 1 µM [6]: 14% | plasma concentration [7]: < 1 ng/mL | remaining binding at 1 µM [8]: 69% | remaining binding at 1 µM [10]: 79% | remaining binding at 1 µM [11]: 76% | remaining binding at 1 µM [12]: 63% | remaining binding at 1 µM [13]: 64% | remaining binding at 1 µM [14]: 66% | remaining binding at 1 µM [15]: 75% | remaining binding at 1 µM [16]: 78% | remaining binding at 1 µM [17]: 57% | remaining binding at 1 µM [18]: 31% | remaining binding at 1 µM [19]: 3.5% | remaining binding at 1 µM [20]: 75%
SMILES: CO[C@H]1CC[C@H](n2c([C@@H]3CCCC(=O)N3c3ccc(F)c(F)c3)nc3cc(-c4c(C)noc4C)ccc32)CC1 [CCS1477]
MYC gene expression and protein levels [9]: loss of MYC gene expression and protein levels
